Experimental data published in ChEMBL document CHEMBL4732023, “Using NMR to identify binding regions for N and C-terminal Hsp90 inhibitors using Hsp90 domains” (RSC Med Chem, 2021).
In brackets after ≈: the same amount, converted by molar mass. Activity calls are given as the source filed them. The rule behind the calls is not given here. Where a SMILES comes first, the peptide text is derived from it. [ ]: non-standard residue; d: D form. dAla(4-thiazolyl) = N[C@H](Cc1cscn1)C(=O)O; dDip = N[C@@H](C(=O)O)C(c1ccccc1)c1ccccc1; NMeV = CN[C@H](C(=O)O)C(C)C

Legend:
[1] = biological target: T1, Heat shock protein HSP90 (Homo sapiens, UniProt P07900+P08238); assay: Binding affinity to recombinant His6-tagged HSP90 C-domain (unknown origin) (553 to 732 residues) expressed in Escherichia coli BL21 (DE3) (DNAY) cells assessed as dissociation constant by 15N-1H TROSY-HSQC NMR spectroscopy
[2] = biological target: T1, Heat shock protein HSP90; assay: Binding affinity to HSP90 C-terminal domain (unknown origin) by biochemical assay; assay type: protein assay
[3] = biological target: T1, Heat shock protein HSP90; assay: Binding affinity to recombinant His6-tagged HSP90 C-domain (unknown origin) (553 to 732 residues) expressed in Escherichia coli BL21 (DE3) (DNAY) cells assessed as chemical shift perturbation at protein to compound ratio of 1:1.6 by 15N-1H TROSY-HSQC NMR spectroscopy
[4] = Solubility of compound in water; assay type: physicochemical; details: buffer

| Kd [1] | Kd [2] | Activity [3] | Activity [1] | solubility [4] | SMILES |
| --- | --- | --- | --- | --- | --- |
| 19.8 µM | 45 µM | Active |  |  | NCCCC[C@@H]1NC(=O)[C@H](Cc2ccccc2)NC(=O)[C@H](Cc2ccc(O)cc2)NC(=O)[C@H](CO)NC(=O)[C@H](CC(N)=O)NC1=O (cyclo(KNSYF)) |
|  |  |  | Active | 200 µM (≈ 143 µg/mL) | CC(C)C[C@@H]1NC(=O)[C@H](C(C)C)N(C)C(=O)[C@@H](CC(C)C)NC(=O)[C@@H](Cc2cscn2)NC(=O)[C@@H](C(c2ccccc2)c2ccccc2)NC1=O (cyclo(L[dDip][dAla(4-thiazolyl)][dL][NMeV])) |
|  | 500 µM |  |  |  | COc1cc([C@H]2Oc3cc([C@H]4Oc5cc(O)cc(O)c5C(=O)[C@@H]4O)ccc3O[C@@H]2CO)ccc1O [SILYBIN A] |
